Key:
ALS patients [1] = experiment: Post-hoc statistical analysis 2: ALSFRS-R total score from baseline to cycle 12 (16, 17 and 19 trials), MMRM; format: in vivo, human
From the text: After a 12-week observation period, patients whose ALSFRS-R total score decreased by 1 to 4 points during that period were considered eligible for the trial. In the 16 trial, eligible patients were randomly divided into an edaravone treatment group and a placebo administration group, and patients in each group received administration for 24 weeks (cycles 1 to 6). After completing the 24-week double-blind portion of the 16 trial, patients who received edaravone (E) were randomly assigned to the 17 trial, and during a 24-week double-blind extension period (cycles 7 to 12), edaravone treatment (EE group) or placebo administration (EP group) was performed. On the other hand, all patients from the placebo (P) administration group received edaravone treatment (PE group). All patients received open-label edaravone treatment for the next 12 weeks (cycles 13 to 15).
Edaravone was administered at a dose of 60 mg by intravenous infusion over 60 minutes, once daily. The infusion was given for 14 days in the first treatment cycle, and for 10 days out of the 14-day treatment period in all subsequent cycles. A 14-day drug holiday period was provided after each treatment cycle.
Similar to the 16 trial, after a 12-week observation period, patients in the 19 trial were randomly divided into an edaravone treatment group and a placebo administration group, and patients in each group received administration for 24 weeks (cycles 1 to 6). In the 19 trial, after the double-blind treatment period, all patients received open-label edaravone treatment for an additional 24 weeks (cycles 7 to 12). Therefore, the 19 trial included an EE group and a PE group.
In order to characterize the uric acid level and ALSFRS-R total score profiles at cycle 12, efficacy was analyzed in randomized ALS patients at the start of cycle 7 and randomized ALS patients who received the medical agent at least once after the start of cycle 7.
Descriptive statistics (number of subjects, mean, standard deviation, minimum, maximum) were used to summarize the changes in uric acid levels (mg/dL) and ALSFRS-R total scores from baseline to cycle 12 for the entire population and for the Edaravone treatment group as a subgroup defined by the median baseline uric acid level (4.8 mg/dL). The median baseline uric acid level for all patients (4.8 mg/dL) was derived using the entire edaravone population, including the EE, PE, and EP groups in the 16 trial, the 17 trial, and the 19 trial.
The least squares (LS) mean difference of the EE and EP treatment groups compared to the PE treatment group was estimated using a mixed-effects model for repeated measures (MMRM). By using the MMRM, the LS mean, standard error, 95% confidence interval (CI), and p-value for each group are calculated. The MMRM includes treatment group, time point, interaction between treatment group and time point, age (<65 years or >65 years), initial symptoms (bulbar or limb symptoms), ALS diagnostic criteria (ALS definite, ALS highly possible, ALS highly possible with positive test findings, ALS possible), change in ALSFRS-R total score during the 12-week observation period (−1/−2 or −3/−4), and use of riluzole (Yes or No) as fixed effects, and includes baseline of the ALSFRS-R total score or uric acid baseline (mg/dL) of the median subgroup as covariates. A compound symmetric covariance matrix was applied to model covariance of within-patient scores, and the Kenward-Roger approximation was applied to estimate a degrees of freedom of the criteria. The statistical significance level was set at a two-sided level of 0.05.

ALS patients [2] = experiment: Propensity score matching cohort evaluation, EE group vs PRO-ACT placebo, ALSFRS-R total score; format: in vivo, human
Experimental: In a sensitivity analysis, propensity score matching cohort evaluation was conducted to compare the baseline changes in ALSFRS-R total score at 48 weeks between the EE group from the 16 trial, the 17 trial, and the 19 trial, and a matching cohort from the Pooled Resource Open-Access ALS Clinical Trials Database (hereinafter PRO-ACT) database. The EE group and PRO-ACT placebo group were matched 1:1 using a caliper width of 0.2 of the log it of the propensity score. The propensity score was developed using baseline confounding factors and ALS progression variables (gender, body weight, age, duration of ALS disease, ALSFRS-R total score baseline, uric acid baseline) of the EE group. A balance after the matching was evaluated using a standardized mean difference of less than 0.1 (Reference 6: J Clin Epidemiol 2001; 54 (4): 387-398). The propensity score was added as an explanatory variable for the MMRM analysis. Further, a subgroup analysis of uric acid levels was performed using MMRM analysis within the matching cohort, and the change from baseline in the ALSFRS-R total score at 48 weeks was compared between the EE group and the PRO-ACT placebo group.

ALS patients [3] = experiment: Post-hoc statistical analysis 2: uric acid levels from baseline to cycle 12 (16, 17 and 19 trials); format: in vivo, human; settings: placebo-controlled double-blind period (cycles 1-6); edaravone group vs placebo group
ALS patients [4] = settings: 18 trial; ALS severity of grade 3; very small number of cases; cited from earlier work
[5] = Subgroup with uric acid level baseline <4.8 mg/dL, EE group
[6] = Subgroup with uric acid level baseline <4.8 mg/dL, EP group
[7] = Subgroup with uric acid level baseline <4.8 mg/dL, PE group
[8] = Subgroup with uric acid level baseline ≥4.8 mg/dL, EE group
[9] = Subgroup with uric acid level baseline ≥4.8 mg/dL, EP group
[10] = Subgroup with uric acid level baseline ≥4.8 mg/dL, PE group
[11] = uric acid level baseline <4.8 mg/dL
[12] = uric acid level baseline ≥4.8 mg/dL

## CC1=NN(c2ccccc2)C(=O)C1 [edaravone, 3-methyl-1-phenyl-2-pyrazolin-5-one]
ALS patients [1]; Overall, EE group
  ALSFRS-R total score change from BL to cycle 12, LS Mean (SE): −7.2 (1.17) points
  ALSFRS-R total score change from BL to cycle 12, Mean (SD): −8.1 points
ALS patients [1]; Overall, EE group, listed as Edaravone
  ALSFRS-R total score change from BL to cycle 12, Mean (SD): −8.1 (5.97) points
ALS patients [1]; Overall, EP group
  ALSFRS-R total score change from BL to cycle 12, LS Mean (SE): −8.7 (1.28) points
  ALSFRS-R total score change from BL to cycle 12, Mean (SD): −9.6 (6.88) points
ALS patients [1]; Overall, Edaravone-Edaravone (EE) group
  ALSFRS-R total score at Cycle 12, Mean (SD): 33.3 (7.66) points
ALS patients [1]; Overall, Edaravone-Placebo (EP) group
  ALSFRS-R total score at Cycle 12, Mean (SD): 31.3 (7.74) points
ALS patients [1]; Overall, PE group
  ALSFRS-R total score change from BL to cycle 12, LS Mean (SE): −9.9 (1.12) points
  ALSFRS-R total score change from BL to cycle 12, Mean (SD): −10.3 (7.70) points
ALS patients [1]; Overall, Placebo-Edaravone (PE) group
  ALSFRS-R total score at Cycle 12, Mean (SD): 31.2 (8.64) points
ALS patients [1]; [5]
  ALSFRS-R total score at Cycle 12, Mean (SD): 32.6 (8.48) points
  ALSFRS-R total score change from BL to cycle 12, LS Mean (SE): −7.0 (1.38) points
  ALSFRS-R total score change from BL to cycle 12, Mean (SD): −8.7 points
ALS patients [1]; Subgroup with uric acid level baseline <4.8 mg/dL, EE group, listed as Edaravone
  ALSFRS-R total score change from BL to cycle 12, Mean (SD): −8.7 (6.95) points
ALS patients [1]; [6]
  ALSFRS-R total score at Cycle 12, Mean (SD): 31.5 (7.66) points
  ALSFRS-R total score change from BL to cycle 12, LS Mean (SE): −7.8 (1.78) points
  ALSFRS-R total score change from BL to cycle 12, Mean (SD): −9.7 (7.17) points
ALS patients [1]; [7]
  ALSFRS-R total score at Cycle 12, Mean (SD): 31.6 (7.99) points
  ALSFRS-R total score change from BL to cycle 12, LS Mean (SE): −8.5 (1.37) points
  ALSFRS-R total score change from BL to cycle 12, Mean (SD): −9.7 (7.30) points
ALS patients [1]; [8]
  ALSFRS-R total score at Cycle 12, Mean (SD): 34.0 (6.65) points
  ALSFRS-R total score change from BL to cycle 12, LS Mean (SE): −8.1 (0.91) points
  ALSFRS-R total score change from BL to cycle 12, Mean (SD): −7.4 points
ALS patients [1]; Subgroup with uric acid level baseline ≥4.8 mg/dL, EE group, listed as Edaravone
  ALSFRS-R total score change from BL to cycle 12, Mean (SD): −7.4 (4.63) points
ALS patients [1]; [9]
  ALSFRS-R total score at Cycle 12, Mean (SD): 31.1 (7.97) points
  ALSFRS-R total score change from BL to cycle 12, LS Mean (SE): −10.3 (1.05) points
  ALSFRS-R total score change from BL to cycle 12, Mean (SD): −9.5 (6.82) points
ALS patients [1]; [10]
  ALSFRS-R total score at Cycle 12, Mean (SD): 30.8 (9.20) points
  ALSFRS-R total score change from BL to cycle 12, LS Mean (SE): −12.0 (0.77) points
  ALSFRS-R total score change from BL to cycle 12, Mean (SD): −10.9 (8.03) points
ALS patients [2]; Overall
  ALSFRS-R total score at Cycle 12, Mean (SD): 32.8 (7.79) points
  ALSFRS-R total score change from baseline to cycle 12, LS Mean (SE): −8.7±0.53 points
  ALSFRS-R total score change from baseline to cycle 12, Mean (SD): −8.2 (6.16) points
ALS patients [2]; Overall, 95% CI [0.71, 3.72], p=0.0041
  ALSFRS-R total score change from baseline to cycle 12, LSMD vs placebo PRO-ACT (SE): 2.21±0.77 points
ALS patients [2]; Overall, listed as Edaravone
  ALSFRS-R total score change from baseline to cycle 12, LS Mean (SE): −8.7 (0.53) points
ALS patients [2]; [11]
  ALSFRS-R total score at Cycle 12, Mean (SD): 31.3 (8.79) points
  ALSFRS-R total score change from baseline to cycle 12, LS Mean (SE): −10.3 (0.74) points
  ALSFRS-R total score change from baseline to cycle 12, Mean (SD): −9.6 (7.52) points
ALS patients [2]; [12]
  ALSFRS-R total score at Cycle 12, Mean (SD): 34.0 (6.75) points
  ALSFRS-R total score change from baseline to cycle 12, LS Mean (SE): −7.3 (0.73) points
  ALSFRS-R total score change from baseline to cycle 12, Mean (SD): −7.1 (4.58) points
ALS patients [3]
  decrease in uric acid levels from baseline at cycle 6: smaller decrease in uric acid levels compared to the placebo group
ALS patients [4]
  change in ALSFRS-R total score compared to placebo: no statistically significant difference was observed compared to placebo

From US20250134863A1, “MEDICAL AGENT FOR TREATING OR SUPPRESSING PROGRESSION OF AMYOTROPHIC LATERAL SCLEROSIS” (MITSUBISHI TANABE PHARMA CORPORATION, priority 2022, published 2025)
